Data from PubChem BioAssay AID330 (DTP/NCI, 2004).
Where “and” joins values, the source holds several entries; their conditions need not be identical. Identical values can stand only once. Inconclusive results and toxic doses are left out. The calls were made as follows: active = survival T/C of 150% or more; inactive = T/C below 125% in these data.

System: P388 leukemia ip, CD2F1 mice, survival T/C
Experiment: NCI In Vivo Anticancer Drug Screen. Data for tumor model P388 Leukemia (intraperitoneal) in CD2F1 (CDF1) mice
Settings: endpoint: median survival time, higher = longer survival
Method in brief: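 Mice carrying the transplanted tumor received test compound or vehicle. Survival was recorded in each group, and the value is the treated-group measurement divided by that of the vehicle-treated control group.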

[1] = dose: 200.0 mg/kg/injection, schedule: Q01DX009 (ip), vehicle: saline
[2] = dose: 15.0 mg/kg/injection, schedule: Q01DX005 (ip), vehicle: Klucel (hydroxypropylcellulose) (HPC)
[3] = dose: 30.0 mg/kg/injection, schedule: Q01DX005 (ip), vehicle: Klucel (hydroxypropylcellulose) (HPC)
[4] = dose: 50.0 mg/kg/injection, schedule: Q01DX009 (ip), vehicle: distilled water + Tween-80
[5] = dose: 60.0 mg/kg/injection, schedule: Q01DX005 (ip), vehicle: Klucel (hydroxypropylcellulose) (HPC)
[6] = dose: 100.0 mg/kg/injection, schedule: Q04DX003 (ip), vehicle: saline with Tween-80
[7] = dose: 200.0 mg/kg/injection, schedule: Q04DX003 (ip), vehicle: saline with Tween-80
[8] = dose: 400.0 mg/kg/injection, schedule: Q04DX003 (ip), vehicle: saline with Tween-80
[9] = dose: 50.0 mg/kg/injection, schedule: Q01DX005 (ip), vehicle: saline with Tween-80
[10] = dose: 100.0 mg/kg/injection, schedule: Q01DX005 (ip), vehicle: saline with Tween-80
[11] = dose: 12.5 mg/kg/injection, schedule: Q01DX009 (ip), vehicle: Klucel (hydroxypropylcellulose) (HPC)
[12] = dose: 25.0 mg/kg/injection, schedule: Q01DX009 (ip), vehicle: Klucel (hydroxypropylcellulose) (HPC)
[13] = dose: 50.0 mg/kg/injection, schedule: Q01DX009 (ip), vehicle: Klucel (hydroxypropylcellulose) (HPC)

Measured: T/C

O=C1c2cccc(O)c2C(=O)c2c(OC3OC(CO)C(OC4OC(CO)C(O)C(O)C4O)C(O)C3O)cccc21 (stereo unspecified)
inactive: dose: 12.5 mg/kg/injection, schedule: Q04DX003 (ip), vehicle: saline with Tween-80 100 % of control | dose: 25.0 mg/kg/injection, schedule: Q04DX003 (ip), vehicle: saline with Tween-80 100 % of control | dose: 50.0 mg/kg/injection, schedule: Q01DX009 (ip), vehicle: saline 104 % of control | dose: 50.0 mg/kg/injection, schedule: Q04DX003 (ip), vehicle: saline with Tween-80 99 % of control | dose: 100.0 mg/kg/injection, schedule: Q01DX009 (ip), vehicle: saline 107 % of control | [1] 102 % of control

CCc1nc(N)nc(N)c1-c1ccc(Cl)c(N=[N+]=[N-])c1
inactive: dose: 3.13 mg/kg/injection, schedule: Q01DX009 (ip), vehicle: distilled water + Tween-80 99 % of control | dose: 6.25 mg/kg/injection, schedule: Q01DX009 (ip), vehicle: distilled water + Tween-80 102 % of control | dose: 12.5 mg/kg/injection, schedule: Q01DX009 (ip), vehicle: distilled water + Tween-80 107 % of control | [2] 100 % of control | dose: 25.0 mg/kg/injection, schedule: Q01DX009 (ip), vehicle: distilled water + Tween-80 110 % of control and 89 % of control | [3] 108 % of control | [4] 109 % of control | [5] 106 % of control and 116 % of control
active: dose: 200.0 mg/kg/injection, schedule: Q01DX009 (ip), vehicle: distilled water + Tween-80 151 % of control

CC1/C(=N/Nc2ccc([N+](=O)[O-])cc2)CC2C3(C)CCC2(C(C)C(=O)O)C(=O)C13 (stereo unspecified)
inactive: dose: 25.0 mg/kg/injection, schedule: Q04DX003 (ip), vehicle: Klucel (hydroxypropylcellulose) (HPC) 92 % of control | dose: 50.0 mg/kg/injection, schedule: Q04DX003 (ip), vehicle: Klucel (hydroxypropylcellulose) (HPC) 94 % of control | dose: 100.0 mg/kg/injection, schedule: Q04DX003 (ip), vehicle: Klucel (hydroxypropylcellulose) (HPC) 88 % of control and 94 % of control | dose: 400.0 mg/kg/injection, schedule: Q04DX003 (ip), vehicle: Klucel (hydroxypropylcellulose) (HPC) 90 % of control

COc1cc2ccc(/C=N/NC(N)=S)cc2cc1OC
inactive: dose: 12.5 mg/kg/injection, schedule: Q01DX009 (ip), vehicle: water 96 % of control | dose: 25.0 mg/kg/injection, schedule: Q01DX009 (ip), vehicle: water 90 % of control | dose: 50.0 mg/kg/injection, schedule: Q01DX009 (ip), vehicle: water 96 % of control | dose: 100.0 mg/kg/injection, schedule: Q01DX009 (ip), vehicle: water 91 % of control | dose: 200.0 mg/kg/injection, schedule: Q01DX009 (ip), vehicle: water 89 % of control

O=C1C(=Cc2ccc(Cl)cc2)C(=O)N(c2ccccc2)C(=S)N1c1ccccc1
inactive: dose: 100.0 mg/kg/injection, schedule: Q04DX002 (ip), vehicle: Klucel (hydroxypropylcellulose) (HPC) 101 % of control | dose: 200.0 mg/kg/injection, schedule: Q04DX002 (ip), vehicle: Klucel (hydroxypropylcellulose) (HPC) 93 % of control | dose: 400.0 mg/kg/injection, schedule: Q04DX002 (ip), vehicle: Klucel (hydroxypropylcellulose) (HPC) 89 % of control

COc1ccc2c(c1)CCn1c(C)c(COC(=O)NC3CCCCC3)c(COC(=O)NC3CCCCC3)c1-2
active: [4] 151 % of control and 164 % of control
inactive: dose: 100.0 mg/kg/injection, schedule: Q01DX009 (ip), vehicle: distilled water + Tween-80 92 % of control

C1=C(c2ccc(OCc3ccccc3)c(OCc3ccccc3)c2)CC2CCCCC2C1 (stereo unspecified)
inactive: dose: 100.0 mg/kg/injection, schedule: Q04DX002 (ip), vehicle: saline with Tween-80 93 % of control | dose: 200.0 mg/kg/injection, schedule: Q04DX002 (ip), vehicle: saline with Tween-80 93 % of control | dose: 400.0 mg/kg/injection, schedule: Q04DX002 (ip), vehicle: saline with Tween-80 111 % of control

CCCCC(NC(=O)CC)C(=O)O (stereo unspecified)
inactive: dose: 6.25 mg/kg/injection, schedule: Q01DX009 (ip), vehicle: saline 107 % of control | dose: 12.5 mg/kg/injection, schedule: Q01DX009 (ip), vehicle: saline 94 % of control | dose: 25.0 mg/kg/injection, schedule: Q01DX009 (ip), vehicle: saline 98 % of control | [1] 100 % of control

O=C(O)CCc1nc(-c2ccccc2)ncc1C(=O)O
inactive: [6] 100 % of control | [7] 100 % of control | [8] 98 % of control

CC(=O)N1C=Cc2ccccc2C1(Br)C1(Br)c2ccccc2C=CN1C(C)=O (stereo unspecified)
inactive: dose: 25.0 mg/kg/injection, schedule: Q01DX005 (ip), vehicle: saline with Tween-80 97 % of control | [9] 99 % of control | [10] 89 % of control

CC(=O)Nc1ccc(Sc2ncc([N+](=O)[O-])s2)cc1
inactive: [11] 100 % of control | [12] 116 % of control | [13] 100 % of control and 108 % of control | dose: 100.0 mg/kg/injection, schedule: Q01DX009 (ip), vehicle: Klucel (hydroxypropylcellulose) (HPC) 102 % of control

CCOC1(OCC)Oc2c(Cl)c(Cl)c(Cl)c(Cl)c2OC1(OCC)OCC
inactive: [5] 99 % of control | dose: 120.0 mg/kg/injection, schedule: Q01DX005 (ip), vehicle: Klucel (hydroxypropylcellulose) (HPC) 100 % of control | dose: 240.0 mg/kg/injection, schedule: Q01DX005 (ip), vehicle: Klucel (hydroxypropylcellulose) (HPC) 104 % of control

CCCCCCCCCC#CC(=O)O
inactive: dose: 50.0 mg/kg/injection, schedule: Q01DX009 (ip), vehicle: saline with Tween-80 95 % of control | dose: 100.0 mg/kg/injection, schedule: Q01DX009 (ip), vehicle: saline with Tween-80 110 % of control | dose: 200.0 mg/kg/injection, schedule: Q01DX009 (ip), vehicle: saline with Tween-80 89 % of control

COC(=O)CCn1nc(-c2ccccc2)c(-c2ccccc2)c(S(C)(=O)=O)c1=O
inactive: dose: 25.0 mg/kg/injection, schedule: Q04DX002 (ip), vehicle: distilled water + Tween-80 95 % of control | dose: 50.0 mg/kg/injection, schedule: Q04DX002 (ip), vehicle: distilled water + Tween-80 92 % of control | dose: 200.0 mg/kg/injection, schedule: Q04DX002 (ip), vehicle: distilled water + Tween-80 90 % of control

C(=C1c2ccccc2-c2ccccc21)c1ccccc1
inactive: [6] 100 % of control | [7] 100 % of control | [8] 100 % of control

O=C(Nc1ccccc1)N1c2ccccc2SC1c1ccco1 (stereo unspecified)
inactive: [9] 101 % of control | [10] 100 % of control | dose: 200.0 mg/kg/injection, schedule: Q01DX005 (ip), vehicle: saline with Tween-80 92 % of control

CC(=O)NC(c1nc2cc(C)c(C)cc2[nH]1)c1nc2cc(C)c(C)cc2[nH]1
inactive: dose: 50.0 mg/kg/injection, schedule: Q01DX005 (ip), vehicle: Klucel (hydroxypropylcellulose) (HPC) 101 % of control | dose: 100.0 mg/kg/injection, schedule: Q01DX005 (ip), vehicle: Klucel (hydroxypropylcellulose) (HPC) 106 % of control | dose: 200.0 mg/kg/injection, schedule: Q01DX005 (ip), vehicle: Klucel (hydroxypropylcellulose) (HPC) 110 % of control

C=CCOC(=O)C1CC2OC2CC1C (stereo unspecified)
inactive: dose: 75.0 mg/kg/injection, schedule: Q01DX009 (ip), vehicle: saline with Tween-80 96 % of control | dose: 150.0 mg/kg/injection, schedule: Q01DX009 (ip), vehicle: saline with Tween-80 103 % of control | dose: 300.0 mg/kg/injection, schedule: Q01DX009 (ip), vehicle: saline with Tween-80 97 % of control

O=[N+]([O-])c1ccc(/C=N/O)s1
inactive: [11] 109 % of control | [12] 101 % of control | [13] 108 % of control

CONC(=O)N/N=C\c1c(CO)cnc(C)c1O
inactive: dose: 7.5 mg/kg/injection, schedule: Q01DX005 (ip), vehicle: Klucel (hydroxypropylcellulose) (HPC) 105 % of control | [2] 102 % of control | [3] 102 % of control

CC/C(=C1/C=C(O)C(=O)C=C1OC)c1ccc(OC)cc1
inactive: dose: 2.5 mg/kg/injection, schedule: Q01DX009 (ip), vehicle: saline + alcohol 100 % of control | dose: 5.0 mg/kg/injection, schedule: Q01DX009 (ip), vehicle: saline + alcohol 101 % of control | dose: 10.0 mg/kg/injection, schedule: Q01DX009 (ip), vehicle: saline + alcohol 103 % of control
